Ends that are not written are not given here.
Legend:
Format in all cases: in vivo, female BALB/c mice
[1] = system: HIF-1α in orthotopic 4T1 tumors; assay: Intratumoral HIF-1α expression by flow cytometry
Protocol: (§1) 4T1 cells (1 × 10^6 cells) were injected into the third mammary fat pad of female BALB/c mice (6–8-week). […] On day 28, blood samples, lungs and tumors were harvested.
For evaluating the hypoxic conditions in tumor tissues, immunofluorescent staining and flow cytometry analysis of HIF-1α were conducted. For immunofluorescent staining of HIF-1α, tumor slices were sequentially stained with anti-HIF-1 alpha recombinant rabbit monoclonal antibody (1:500 dilution) and goat anti-rabbit IgG H&L Alexa Fluor® 647 (1:1000 dilution). For flow cytometry analysis of HIF-1α, single-cell suspensions of tumor tissues were sequentially stained with anti-HIF1 alpha rabbit polyclonal antibody (1:500 dilution) and goat anti-rabbit IgG H&L Alexa Fluor® 647 (1:1000 dilution) before analysis.

[2] = system: orthotopic 4T1 breast tumors; assay: EMT markers E-cadherin and vimentin in primary tumors (flow cytometry)
Protocol: as §1
To investigate the epithelial-mesenchymal transition process in tumor tissues, immunofluorescent staining of E-cadherin, vimentin, MMP-9, and TGF-β, along with flow cytometry analysis of E-cadherin and vimentin, were applied. For immunofluorescent staining of E-cadherin and vimentin, tumor slices were stained with CoraLite® Plus 647 anti-mouse CD324 (E-cadherin, 1:300 dilution) and anti-vimentin mouse monoclonal antibody (1:500 dilution) at 4 °C overnight, followed by staining with goat anti-mouse IgG H&L Alexa Fluor® 488 (1:1000 dilution). For flow cytometry analysis of E-cadherin and vimentin, single-cell suspensions of tumor tissues were stained with CoraLite® Plus 647 anti-mouse CD324 (E-cadherin, 1:300 dilution) or sequentially stained with anti-vimentin recombinant rabbit monoclonal antibody and goat anti-rabbit IgG H&L Alexa Fluor® 647 (1:1000 dilution), respectively. For immunofluorescent staining of MMP-9 and TGF-β, tumor slices were separately stained with MMP9 Rabbit pAb (1:500 dilution) or anti-TGF beta 1 recombinant rabbit monoclonal antibody (1:500 dilution), followed by staining with goat anti-rabbit IgG H&L Alexa Fluor® 647 (1:1000 dilution), respectively.

[3] = system: orthotopic 4T1 breast tumors; assay: Tumor-infiltrating CD8+ T lymphocytes, Tregs and MDSCs (flow cytometry); conditions: for CD3+CD8+ T cells (%) in tumor / CD11b+Gr1+ MDSCs (%) in tumor / Tregs (%) in CD4+ T cells: Supplementary Fig. 16a; for intratumoral Tregs and MDSCs: three i.v. cycles days 7, 14, 21, day 28, no PDT
Protocol: 4T1 cells (1 × 10^6 cells) were injected into the third mammary fat pad of female BALB/c mice (6–8-week). When tumor volumes reached nearly […] on day 7 after tumor inoculation, mice were randomly divided into 8 groups (n = 8 per group). For four groups without laser irradiation (−), mice were intravenously injected with the following samples: (1) saline on day 7, 14, 21, and 28, (2) P-PS on day 7, 14, 21, and 28, (3) P-BS-PS on day 7, 14, 21, and 28, or (4) P-BS-CM1 on day 7, 14, 21, and 28, followed by P-PS-CM2 on day 8, 15, 22, and 29 (5 mg/kg BS equivalence, CM1:CM2 1:1 mol%, 2.5 mg/kg PS equivalence), respectively. For four groups with laser irradiation (+), mice were treated with the same regimens and irradiated at 650 nm laser (580 mW/cm^2, 5 min) on day 9, 16, 23 and 30. Tumor volumes and mice survivals were recorded every other day. For the investigation of immune response and lung metastasis, 4T1 tumor-bearing female BALB/c mice (6–8-week, tumor volume~100 mm^3) were randomly divided into 8 groups (n = 5 per group) and given three rounds of above treatments. On day 28, lungs and tumors were harvested. lungs were fixed with Bouin’s solution. The pulmonary metastatic nodules were counted and analyzed by hematoxylin-eosin staining. Single-cell suspensions of tumor tissues were stained with anti-CD45-PerCP/Cy5.5 (1:300 dilution) and anti-calreticulin recombinant rabbit monoclonal antibody (1:500 dilution) at 4 °C for 1 h, and then stained with goat anti-rabbit IgG H&L Alexa Fluor® 647 (1:1000 dilution, 4 °C, 45 min), followed by flow cytometry analysis. ATP and HMGB1 concentrations in the supernatant of cell suspension were measured using a luciferase-based ATP assay kit and a mouse HMGB1 ELISA kit, respectively. Single-cell suspensions of tumors were stained with FITC anti-mouse CD3 antibody (1:300 dilution), PerCP/Cyanine5.5 anti-mouse CD4 antibody (1:300 dilution), anti-CD8α-APC (1:300 dilution), and anti-Foxp3-PE (1:300 dilution) for flow cytometry analysis of T cell subtypes (CD8^+ T cells, CD4^+ effector T cells, and Foxp3^+ regulatory T cells), and stained with PE anti-mouse/human CD11b antibody (1:300 dilution) and FITC anti-mouse Ly-6G/Ly-6C (Gr-1) antibody (1:300 dilution) for flow cytometry analysis of MDSCs (CD11b^+Gr1^+). Cytotoxic T cells in tumor tissues were investigated with immunofluorescent staining of IFN-γ and flow cytometry analysis using anti-IFN-γ-PE (1:300 dilution). For CD8-depletion assay, 4T1 tumor-bearing female BALB/c mice (6–8-week, tumor volume~100 mm^3) were randomly divided into 3 groups (n = 8 per group). Mice were intravenously given four doses of P-BS-CM1 on day 7, 14, 21 and 28, combined with P-PS-CM2 on day 8, 15, 22 and 29 (5 mg/kg BS equivalence, CM1:CM2 1:1 mol%, 2.5 mg/kg PS equivalence) in the presence or absence of InvivoMab anti-mouse CD8α (100 μg/mice). Mice were irradiated at 650 nm laser (580 mW/cm^2, 5 min) on day 9, 16, 23 and 30. Tumor volumes and mice survivals were recorded every other day.

[4] = i.v. days 7, 14, 21 (5 mg/kg BS equivalence; P-CM2 24 h later), analysis day 28, mouse 1 of 5

Substance | intratumoral HIF-1α expression, flow cytometry (Fig. 6c) [1, 4] | intratumoral HIF-1α expression, flow cytometry (Fig. 6c) ([1]; same, mouse 2 of 5) | intratumoral HIF-1α expression, flow cytometry (Fig. 6c) ([1]; same, mouse 3 of 5) | intratumoral HIF-1α expression, flow cytometry (Fig. 6c) ([1]; same, mouse 4 of 5) | intratumoral HIF-1α expression, flow cytometry (Fig. 6c) ([1]; same, mouse 5 of 5) | Relative fluorescence intensity of E-cadherin ([2]; replicate 1) | Relative fluorescence intensity of vimentin ([2]; replicate 1) | Relative fluorescence intensity of E-cadherin ([2]; replicate 2) | Relative fluorescence intensity of vimentin ([2]; replicate 2) | Relative fluorescence intensity of E-cadherin ([2]; replicate 3) | Relative fluorescence intensity of vimentin ([2]; replicate 3) | Relative fluorescence intensity of E-cadherin ([2]; replicate 4) | Relative fluorescence intensity of vimentin ([2]; replicate 4) | Relative fluorescence intensity of E-cadherin ([2]; replicate 5) | Relative fluorescence intensity of vimentin ([2]; replicate 5) | CD3+CD8+ T cells (%) in tumor ([3]; replicate 1 of 5) [%] | CD11b+Gr1+ MDSCs (%) in tumor ([3]; replicate 1 of 5) [%] | Tregs (%) in CD4+ T cells ([3]; replicate 1 of 5) [%] | CD3+CD8+ T cells (%) in tumor ([3]; replicate 2 of 5) [%] | CD11b+Gr1+ MDSCs (%) in tumor ([3]; replicate 2 of 5) [%] | other results
LGASWHRPDKCCLGYQKRPLPA [Free BS] | 1107.6 | 915.453 | 924.512 | 898.316 | 847.852 | 125.013 | 279.76 | 109.513 | 205.554 | 122.233 | 194.538 | 126.237 | 224.095 | 145.15 | 192.228 | 0.123 | 19.37 | 22.46 | 0.1188 | 18.11 | Tregs (%) in CD4+ T cells ([3]; replicate 2 of 5): 19.38%; CD3+CD8+ T cells (%) in tumor ([3]; replicate 3 of 5): 0.1444%; CD11b+Gr1+ MDSCs (%) in tumor ([3]; replicate 3 of 5): 26.3%; Tregs (%) in CD4+ T cells ([3]; replicate 3 of 5): 19.75%; CD3+CD8+ T cells (%) in tumor ([3]; replicate 4 of 5): 0.1085%; CD11b+Gr1+ MDSCs (%) in tumor ([3]; replicate 4 of 5): 21.21%; Tregs (%) in CD4+ T cells ([3]; replicate 4 of 5): 21.91%; CD3+CD8+ T cells (%) in tumor ([3]; replicate 5 of 5): 0.1016%; CD11b+Gr1+ MDSCs (%) in tumor ([3]; replicate 5 of 5): 17.61%; Tregs (%) in CD4+ T cells ([3]; replicate 5 of 5): 22.71%; intratumoral Tregs and MDSCs [3]: not affected
P-BS: HPMA copolymer-BS conjugate, ~6 BS grafts per polymer (LGASWHRPDKCCLGYQKRPLPA; not fully specified (residues 11, 12); also: about 6 peptides grafted on HPMA copolymer via cysteine-maleimide thioether links) | 747.043 | 870.276 | 640.882 | 534.456 | 521.955 | 136.747 | 148.698 | 140.523 | 180.025 | 162.569 | 180.666 | 158.855 | 185.036 | 155.981 | 170.787 | 0.1153 | 12.4 | 15.81 | 0.2531 | 14.84 | Tregs (%) in CD4+ T cells ([3]; replicate 2 of 5): 15.31%; CD3+CD8+ T cells (%) in tumor ([3]; replicate 3 of 5): 0.2407%; CD11b+Gr1+ MDSCs (%) in tumor ([3]; replicate 3 of 5): 14.8%; Tregs (%) in CD4+ T cells ([3]; replicate 3 of 5): 13.12%; CD3+CD8+ T cells (%) in tumor ([3]; replicate 4 of 5): 0.1577%; CD11b+Gr1+ MDSCs (%) in tumor ([3]; replicate 4 of 5): 14.66%; Tregs (%) in CD4+ T cells ([3]; replicate 4 of 5): 11.55%; CD3+CD8+ T cells (%) in tumor ([3]; replicate 5 of 5): 0.2259%; CD11b+Gr1+ MDSCs (%) in tumor ([3]; replicate 5 of 5): 15.36%; Tregs (%) in CD4+ T cells ([3]; replicate 5 of 5): 16.67%; intratumoral Tregs and MDSCs [3]: moderately decreased

Source: article PMC10980815, “Cell surface patching via CXCR4-targeted nanothreads for cancer metastasis inhibition” (Nature Communications, 2024)
